{
  "source": "patent US20180117103A1",
  "about": "“COMPOSITION FOR ANTIOXIDATION AND IMPROVEMENT OF SKIN CONDITIONS” (CELL BIOTECH CO., LTD., priority 2016, published 2018)",
  "key": {"[1]": {"experiment": "Weight change of white rats on oral administration of probiotics and vitamin C (Test Example 1)", "assay_type": "in vivo, white rats (male, SD rats)", "conditions": "N = 5", "protocol": "In order to verify the effect of a combination of probiotics and vitamin C on anti-aging and the like, 4-week-old white rats (male, SD rats, Saeronbio, Korea) were purchased. Two of the animals were housed in each polypropylene cage and acclimated for one week while they were allowed access to feed and water ad libitum. In addition, the animals were housed at a temperature of 24±2° C. and a relative humidity of 40±20% with a 12-hr light/12-hr dark cycle. During the acclimation period, the health of the rats was checked, and among these rats, animals whose activity was not reduced were selected and used in subsequent tests. […] In order to examine the stability and phenotype of each white rat when the probiotics and the vitamin C were administered to the test animals for 5 weeks in Example 1, the weight change patterns of the white rats during the period from the day before administration to 5 weeks after the start of administration in Example 1 were measured, and the results of the measurement are shown in Table 2 below."}, "[2]": {"system": "superoxide dismutase (SOD)", "experiment": "Activity of superoxide dismutase in serum of white rats, colorimetric assay kit (Test Example 2)", "assay_type": "in vivo, white rats (male, SD rats)", "conditions": "oral administration for 5 weeks", "protocol": "In order to examine the change in antioxidant activity by administration of probiotics and vitamin C (group G4) according to the present invention, antioxidant enzyme activity and serum vitamin levels were measured in the following manner. Blood was collected from the orbits of the white rats of Example 1. The collected blood was incubated at room temperature for 2 hours, and then centrifuged at 1500×g at 4° C. for 15 minutes to separate sera, and the separated sera were stored at −80° C. until use in experiments. For measurement of the activity of antioxidant enzyme in the separated sera, the activity of superoxide dismutase in the sera was measured using a superoxide dismutase assay kit based on a colorimetry assay, and the results of the measurement are shown in FIG. 1 and Table 3 below."}, "[3]": {"system": "total antioxidant capacity (TAS)", "experiment": "Total antioxidant capacity (TAS) in serum of white rats, colorimetric kit (Test Example 2)", "assay_type": "in vivo, white rats (male, SD rats)", "conditions": "oral administration for 5 weeks", "protocol": "In order to examine the change in antioxidant activity by administration of probiotics and vitamin C (group G4) according to the present invention, antioxidant enzyme activity and serum vitamin levels were measured in the following manner. Blood was collected from the orbits of the white rats of Example 1. The collected blood was incubated at room temperature for 2 hours, and then centrifuged at 1500×g at 4° C. for 15 minutes to separate sera, and the separated sera were stored at −80° C. until use in experiments. In order to measure the defense system composed of antioxidant vitamins, non-enzymatic antioxidant substances and antioxidant enzymes, which defend against the toxicity of reactive oxygen species and total antioxidant capacity (TAS) values were measured using a kit of measuring antioxidant activity based on a colorimetry assay."}, "[4]": {"experiment": "Vitamin C levels in sera of white rats by HPLC", "assay_type": "in vivo", "conditions": "male, SD, rat, 1000 mg/head, serum of white rats, oral administration for 5 weeks, read-out: Vit C (serum vitamin C level), Mean ± SD", "protocol": "Blood was collected from the orbits of the white rats of Example 1. The collected blood was incubated at room temperature for 2 hours, and then centrifuged at 1500×g at 4° C. for 15 minutes to separate sera, and the separated sera were stored at −80° C. until use in experiments.\nFor measurement of vitamin C levels in the sera of the white rats prepared in Example 1, high-performance liquid chromatography (HPLC) analysis was performed using a vitamin C reagent kit, and the results of the analysis are shown in FIG. 3 and Table 5 below."}, "L. rhamnosus": {"system": "L. rhamnosus", "experiment": "Distribution of L. rhamnosus in feces of white rats by real-time PCR (Test Example 4)", "assay_type": "in vivo, white rats (male, SD rats)", "conditions": "intestinal feces at 5 weeks after oral administration", "protocol": "(§1) In order to examine the change in intestinal microorganisms by administration of probiotics and vitamin C according to the present invention, expression of genesspecific for L. rhamnosus and E. faecium in the test groups (G1 to G4) prepared in Example 1 was measured.\n(§2) At 5 weeks after oral administration in Example 1, intestinal feces were isolated from the rats of G1 to G4, and DNA was extracted using an MP bio stool kit according to the manufacturer's protocol. Using the extracted DNA, real-time polymerase chain reaction (PCR) was performed using primers specific for L. rhamnosus and E. faecium. The results are shown in FIGS. 4 and 5 and Tables 6 and 7 below."}, "E. faecium": {"system": "E. faecium", "experiment": "Distribution of E. faecium in feces of white rats by real-time PCR (Test Example 4)", "assay_type": "in vivo, white rats (male, SD rats)", "conditions": "intestinal feces at 5 weeks after oral administration", "protocol": "as §1, §2"}},
  "data": [
    {"smiles": "O=C1O[C@H]([C@@H](O)CO)C(O)=C1O", "note": "[G3, L-ascorbic acid]", "values": [
      {"measurement": "Change in weight, Mean", "setting": "[1]; 0 week (day before administration), oral", "result": 137.6, "unit": "g"},
      {"measurement": "Change in weight, Mean", "setting": "[1]; 1 week of oral administration", "result": 178.8, "unit": "g"},
      {"measurement": "Change in weight, Mean", "setting": "[1]; 2 weeks of oral administration", "result": 237.8, "unit": "g"},
      {"measurement": "Change in weight, Mean", "setting": "[1]; 3 weeks of oral administration", "result": 293.0, "unit": "g"},
      {"measurement": "Change in weight, Mean", "setting": "[1]; 4 weeks of oral administration", "result": 338.1, "unit": "g"},
      {"measurement": "Change in weight, Mean", "setting": "[1]; 5 weeks of oral administration", "result": 354.1, "unit": "g"},
      {"measurement": "SOD, Mean ± SD", "setting": "[2]", "result": "6.248 ± 0.08967", "unit": "U/L"},
      {"measurement": "TAS, Mean ± SD", "setting": "[3]", "result": "1.568 ± 0.01708", "unit": "mmol/L"},
      {"measurement": "concentration at 5 weeks", "setting": "[4]", "result": "32.5 ± 1.29", "unit": "µM"},
      {"measurement": "L. rhamnosus, Mean ± SD", "setting": "L. rhamnosus", "result": "7.340 ± 0.09975", "unit": "Nlog10/1 g feces"},
      {"measurement": "E. faecium, Mean ± SD", "setting": "E. faecium", "result": "7.032 ± 0.1134", "unit": "Nlog10/1 g feces"}
    ]}
  ]
}
